pKi: −log10 of the molar value.
Columns and labels:
Carbonic anhydrase 4 = target: T1, Carbonic anhydrase 4 (Bos taurus, UniProt Q95323)
T1 sequence (Q95323 whole entry): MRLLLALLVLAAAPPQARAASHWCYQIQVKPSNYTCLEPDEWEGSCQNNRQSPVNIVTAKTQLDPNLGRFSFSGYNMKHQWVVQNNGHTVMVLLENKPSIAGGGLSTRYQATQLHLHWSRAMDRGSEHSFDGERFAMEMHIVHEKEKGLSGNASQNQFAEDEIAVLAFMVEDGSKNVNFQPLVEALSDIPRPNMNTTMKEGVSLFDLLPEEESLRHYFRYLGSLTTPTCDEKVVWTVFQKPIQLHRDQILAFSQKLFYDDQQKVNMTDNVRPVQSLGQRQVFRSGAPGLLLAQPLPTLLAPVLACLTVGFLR
Description: Inhibitory activity against bovine carbonic anhydrase IV (CA4), isolated from bovine lung microsomes

Carbonic anhydrase 1 = Carbonic anhydrase 1 (Homo sapiens, UniProt P00915)
Description: Inhibitory activity against human carbonic anhydrase I (CA1)

Rattus norvegicus [1] = assay: Renal excretion of bicarbonate after administration of 5 mg/kg in rats.; assay type: functional, Kidney
Rattus norvegicus [2] = assay: Renal excretion of bicarbonate after administration of 4 mg/kg in rats.; assay type: functional, Kidney
Rattus norvegicus [3] = organism: Rattus norvegicus; conditions: dose 10 mg/kg

Chain of Carbonic anhydrase 1 (P00915 whole entry): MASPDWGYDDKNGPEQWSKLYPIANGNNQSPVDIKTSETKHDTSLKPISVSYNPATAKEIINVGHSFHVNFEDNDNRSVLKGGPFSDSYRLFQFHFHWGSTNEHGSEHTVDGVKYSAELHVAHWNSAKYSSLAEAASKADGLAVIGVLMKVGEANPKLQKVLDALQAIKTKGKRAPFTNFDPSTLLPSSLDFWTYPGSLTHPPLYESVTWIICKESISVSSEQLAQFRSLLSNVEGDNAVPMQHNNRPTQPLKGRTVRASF

| Structure (SMILES) | pKi (Carbonic anhydrase 4) | pKi (Carbonic anhydrase 1) | Bicarbonate level (Rattus norvegicus [1]) | Bicarbonate level (Rattus norvegicus [2]) | Bicarbonate level (Rattus norvegicus [3]) |
| --- | --- | --- | --- | --- | --- |
| CC(C)c1cc(-c2ccccc2)cc(C(C)C)[n+]1CC(=O)OCCOc1ccc2nc(S(N)(=O)=O)sc2c1 | 7.52 | 7.96 | – | – | – |
| Cc1cc(-c2ccccc2)cc(C)[n+]1CC(=O)Nc1ccc(S(=O)(=O)/N=c2/sc(S(N)(=O)=O)nn2C)cc1 | 8.10 | 7.96 | – | – | – |
| Cc1cc(-c2ccccc2)cc(C)[n+]1CC(=O)Nc1nnc(S(N)(=O)=O)s1.[O-][Cl+3]([O-])([O-])[O-] | 7.77 | 6.69 | 38 | – | – |
| CCc1cc(-c2ccccc2)cc(CC)[n+]1CC(=O)Nc1ccc(S(=O)(=O)/N=c2/sc(S(N)(=O)=O)nn2C)cc1.[O-][Cl+3]([O-])([O-])[O-] | 8.00 | 7.89 | – | 40 | – |
| CC(C)c1cc(-c2ccccc2)cc(C(C)C)[n+]1CC(=O)/N=c1/sc(S(N)(=O)=O)nn1C.[O-][Cl+3]([O-])([O-])[O-] | 7.46 | 6.52 | 40 | – | – |
| NS(=O)(=O)c1nnc(NS(=O)(=O)c2ccccc2)s1 [BENZOLAMIDE] | – | – | – | – | 115 |

Source: ChEMBL document CHEMBL1133669 (J Med Chem, 2000)
